Experimental findings from ChEMBL document CHEMBL3098096, “Design, synthesis and antibacterial activities of 5-(pyrazin-2-yl)-4H-1,2,4-triazole-3-thiol derivatives containing Schiff base formation as FabH inhibitory” (Bioorg Med Chem Lett, 2014) are described below.

Data set [1] relates to Bacillus amyloliquefaciens. Put plainly: Antimicrobial activity against Bacillus amyloliquefaciens 23842 assessed as […] growth inhibition after 24 hrs by two-fold serial broth dilution method. In kind it is functional. Particulars: Bacillus amyloliquefaciens, 23842, 24 h.
In a further data set the test system is Bacillus subtilis. Put plainly: Antimicrobial activity against Bacillus subtilis ATCC 530 assessed as […] growth inhibition after 24 hrs by two-fold serial broth dilution method. In kind it is functional. Particulars: ATCC 530, 24 h.
Another data set deals with Staphylococcus aureus. Put plainly: Antimicrobial activity against Staphylococcus aureus ATCC 25923 assessed as […] growth inhibition after 24 hrs by two-fold serial broth dilution method. In kind it is functional. Particulars: ATCC 25923, 24 h.
In the next data set the test system is Pseudomonas aeruginosa. Put plainly: Antimicrobial activity against Pseudomonas aeruginosa ATCC 27853 assessed as […] growth inhibition after 24 hrs by two-fold serial broth dilution method. Particulars: ATCC 27853, 24 h. The format is functional.
The subject of the next data set is Escherichia coli. The experiment in a line: Antimicrobial activity against Escherichia coli ATCC 25922 assessed as […] growth inhibition after 24 hrs by two-fold serial broth dilution method. In kind it is functional. The conditions noted are these: ATCC 25922, 24 h.
For the next data set, the system named is NIH3T3. The experiment in a line: Cytotoxicity against mouse NIH/3T3 cells after 24 hrs by MTT assay. The format is cell-based. The conditions noted are these: NIH3T3, 24 h.
Data set [2] can be described thus: Toxicity in human erythrocytes assessed as hemolytic activity by spectrophotometric analysis. The conditions noted are these: erythrocyte. The format is cell-based.
Data set [3] concerns the target T1, 3-oxoacyl-[acyl-carrier-protein] synthase 3 (Escherichia coli, UniProt C3TDZ2).
T1 sequence (C3TDZ2 whole entry): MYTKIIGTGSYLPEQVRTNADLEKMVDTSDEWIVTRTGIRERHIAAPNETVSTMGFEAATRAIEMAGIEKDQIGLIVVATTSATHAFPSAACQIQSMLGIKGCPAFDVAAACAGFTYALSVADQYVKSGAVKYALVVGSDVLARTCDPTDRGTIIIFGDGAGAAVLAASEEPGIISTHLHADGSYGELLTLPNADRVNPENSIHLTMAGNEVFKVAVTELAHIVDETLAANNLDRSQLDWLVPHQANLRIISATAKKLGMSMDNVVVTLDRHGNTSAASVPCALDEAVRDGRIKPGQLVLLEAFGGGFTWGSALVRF
The experiment in a line: Inhibition of Escherichia coli FabH overexpressed in Escherichia coli DH10B cells assessed as incorporation of [3H] in the product after 25 mins by liquid scintillation counting analysis.

Molecules are shown by their SMILES. In brackets after ≈: the same amount, converted by molar mass.

Regarding `Fc1cccc(/C=N/n2c(S)nnc2-c2cnccn2)c1`, the MIC in data set [1] is 50 µg/mL (≈ 166 µM); with Bacillus subtilis, > 50 µg/mL; in the data set with Staphylococcus aureus it was 50 µg/mL (≈ 166 µM); in the data set on Pseudomonas aeruginosa, > 50 µg/mL; in the data set with Escherichia coli it was 25 µg/mL (≈ 83.2 µM).

Consider `Sc1nnc(-c2cnccn2)n1/N=C/c1ccccc1`, for which the minimum inhibitory concentration (MIC) worked out at 50 µg/mL (≈ 177 µM) in data set [1]; 25 µg/mL (≈ 88.5 µM) in the data set on Bacillus subtilis; 50 µg/mL (≈ 177 µM) in the data set on Staphylococcus aureus; 25 µg/mL (≈ 88.5 µM) with Pseudomonas aeruginosa; 25 µg/mL (≈ 88.5 µM) in the data set on Escherichia coli.

For the molecule `Sc1nnc(-c2cnccn2)n1/N=C/c1ccc(Br)cc1`, the MIC came to 25 µg/mL (≈ 69.2 µM) in data set [1]; 25 µg/mL (≈ 69.2 µM) with Bacillus subtilis; 50 µg/mL (≈ 138 µM) in the data set with Staphylococcus aureus; 50 µg/mL (≈ 138 µM) with Pseudomonas aeruginosa; 50 µg/mL (≈ 138 µM) with Escherichia coli.

For `COc1ccc(/C=N/n2c(S)nnc2-c2cnccn2)cc1`, the MIC came to 25 µg/mL (≈ 80 µM) in data set [1]; 50 µg/mL (≈ 160 µM) with Bacillus subtilis; 50 µg/mL (≈ 160 µM) in the data set with Staphylococcus aureus; 25 µg/mL (≈ 80 µM) with Pseudomonas aeruginosa; 12.5 µg/mL (≈ 40 µM) with Escherichia coli.

In the case of `Fc1ccc(/C=N/n2c(S)nnc2-c2cnccn2)cc1`, the MIC is 50 µg/mL (≈ 166 µM) in data set [1]; 50 µg/mL (≈ 166 µM) in the data set with Bacillus subtilis; 50 µg/mL (≈ 166 µM) in the data set on Staphylococcus aureus; > 50 µg/mL with Pseudomonas aeruginosa; 25 µg/mL (≈ 83.2 µM) in the data set on Escherichia coli.

In the case of `Sc1nnc(-c2cnccn2)n1/N=C/c1ccc(Cl)cc1`, the IC50 in the data set with NIH3T3 was 218 µM; in data set [3], > 100 µM. Moreover, in data set [2], the LC30 was > 10000 µg/mL. Further, the MIC was 50 µg/mL (≈ 158 µM) in data set [1]; > 50 µg/mL with Bacillus subtilis; 50 µg/mL (≈ 158 µM) with Staphylococcus aureus; > 50 µg/mL in the data set with Pseudomonas aeruginosa; 50 µg/mL (≈ 158 µM) with Escherichia coli.

For `Oc1ccc(/C=N/n2c(S)nnc2-c2cnccn2)cc1O`, the results for the IC50 (in the data set on NIH3T3; in data set [3]) were 148 µM and 24.6 µM, respectively. The LC30 in data set [2] was > 10000 µg/mL. Also, the MIC in data set [1] came to 25 µg/mL (≈ 79.5 µM); in the data set on Bacillus subtilis, 25 µg/mL (≈ 79.5 µM); in the data set on Staphylococcus aureus, 25 µg/mL (≈ 79.5 µM); in the data set on Pseudomonas aeruginosa it was 12.5 µg/mL (≈ 39.8 µM); in the data set with Escherichia coli it was 12.5 µg/mL (≈ 39.8 µM).

With `NC[C@H]1O[C@H](O[C@H]2[C@H](O)[C@@H](O[C@H]3O[C@H](CO)[C@@H](O)[C@H](N)[C@H]3O)[C@H](N)C[C@@H]2N)[C@H](N)[C@@H](O)[C@@H]1O` [BEKANAMYCIN], the half-maximal inhibitory concentration (IC50) with NIH3T3 is 140 µM; in data set [3], 6.3 µM. Besides, in data set [2], the LC30 was > 10000 µg/mL. The MIC in data set [1] was determined as 1.56 µg/mL (≈ 3.23 µM); with Bacillus subtilis, 3.13 µg/mL (≈ 6.47 µM); in the data set on Staphylococcus aureus it was 1.56 µg/mL (≈ 3.23 µM); in the data set with Pseudomonas aeruginosa, 1.56 µg/mL (≈ 3.23 µM); in the data set with Escherichia coli, 3.13 µg/mL (≈ 6.47 µM).

In the case of `Fc1ccccc1/C=N/n1c(S)nnc1-c1cnccn1`, the MIC in data set [1] worked out at 50 µg/mL (≈ 166 µM); in the data set with Bacillus subtilis, 50 µg/mL (≈ 166 µM); in the data set with Staphylococcus aureus, 50 µg/mL (≈ 166 µM); in the data set on Pseudomonas aeruginosa, 50 µg/mL (≈ 166 µM); in the data set with Escherichia coli it was 25 µg/mL (≈ 83.2 µM).

On to `COc1cccc(/C=N/n2c(S)nnc2-c2cnccn2)c1`, for which the MIC in data set [1] was 50 µg/mL (≈ 160 µM); in the data set with Bacillus subtilis, 50 µg/mL (≈ 160 µM); in the data set on Staphylococcus aureus, > 50 µg/mL; with Pseudomonas aeruginosa, 50 µg/mL (≈ 160 µM); with Escherichia coli, 25 µg/mL (≈ 80 µM).

On to `COc1cc(OC)c(OC)cc1/C=N/n1c(S)nnc1-c1cnccn1`, for which the values for the IC50 (in the data set on NIH3T3; in data set [3]) were 142 µM and 12.8 µM, respectively. Besides, the LC30 in data set [2] is > 10000 µg/mL. For the same molecule, the minimal inhibitory concentration (MIC) came to 6.25 µg/mL (≈ 16.8 µM) in data set [1]; 3.13 µg/mL (≈ 8.4 µM) in the data set with Bacillus subtilis; 25 µg/mL (≈ 67.1 µM) in the data set on Staphylococcus aureus; 12.5 µg/mL (≈ 33.6 µM) in the data set on Pseudomonas aeruginosa; 6.25 µg/mL (≈ 16.8 µM) with Escherichia coli.

For `COc1ccccc1/C=N/n1c(S)nnc1-c1cnccn1`, the IC50 worked out at 173 µM in the data set with NIH3T3 and 22.9 µM in data set [3]. Besides, the LC30 in data set [2] is > 10000 µg/mL. The MIC was 25 µg/mL (≈ 80 µM) in data set [1]; 25 µg/mL (≈ 80 µM) in the data set with Bacillus subtilis; 25 µg/mL (≈ 80 µM) in the data set with Staphylococcus aureus; 25 µg/mL (≈ 80 µM) in the data set on Pseudomonas aeruginosa; 12.5 µg/mL (≈ 40 µM) with Escherichia coli.

As for `COc1cc(/C=N/n2c(S)nnc2-c2cnccn2)cc(OC)c1OC`, the IC50 in the data set on NIH3T3 came out at 169 µM; in data set [3], 15.1 µM. Further, the LC30 in data set [2] is > 10000 µg/mL. For the same molecule, the MIC in data set [1] is 25 µg/mL (≈ 67.1 µM); with Bacillus subtilis it was 6.25 µg/mL (≈ 16.8 µM); in the data set on Staphylococcus aureus, 12.5 µg/mL (≈ 33.6 µM); with Pseudomonas aeruginosa it was 12.5 µg/mL (≈ 33.6 µM); in the data set on Escherichia coli, 6.25 µg/mL (≈ 16.8 µM).

In the case of `Sc1nnc(-c2cnccn2)n1/N=C/c1ccc(Cl)cc1Cl`, the IC50 was 206 µM in the data set on NIH3T3 and > 100 µM in data set [3]. Besides, in data set [2], the LC30 was > 10000 µg/mL. Besides, the MIC is > 50 µg/mL in data set [1]; > 50 µg/mL in the data set with Bacillus subtilis; 50 µg/mL (≈ 142 µM) in the data set on Staphylococcus aureus; > 50 µg/mL in the data set on Pseudomonas aeruginosa; 50 µg/mL (≈ 142 µM) in the data set with Escherichia coli.

Turning to `COc1ccc(/C=N/n2c(S)nnc2-c2cnccn2)cc1OC`, the IC50 was found to be 163 µM with NIH3T3 and 45.5 µM in data set [3]. In addition, in data set [2], the LC30 was > 10000 µg/mL. Besides, the MIC in data set [1] came to 25 µg/mL (≈ 73 µM); with Bacillus subtilis it was 25 µg/mL (≈ 73 µM); with Staphylococcus aureus, 12.5 µg/mL (≈ 36.5 µM); in the data set with Pseudomonas aeruginosa, 50 µg/mL (≈ 146 µM); in the data set on Escherichia coli it was 25 µg/mL (≈ 73 µM).

Turning to `Oc1ccccc1/C=N/n1c(S)nnc1-c1cnccn1`, the IC50 in the data set on NIH3T3 turned out to be 131 µM; in data set [3] it was 5.2 µM. Moreover, the LC30 in data set [2] is > 10000 µg/mL. Moreover, the MIC is 0.78 µg/mL (≈ 2.61 µM) in data set [1]; 0.78 µg/mL (≈ 2.61 µM) with Bacillus subtilis; 1.56 µg/mL (≈ 5.23 µM) in the data set with Staphylococcus aureus; 1.56 µg/mL (≈ 5.23 µM) with Pseudomonas aeruginosa; 0.39 µg/mL (≈ 1.31 µM) in the data set on Escherichia coli.

As for `Oc1cccc(/C=N/n2c(S)nnc2-c2cnccn2)c1`, the figures for the IC50 (with NIH3T3; in data set [3]) were 151 µM and 48.3 µM, respectively. Further, in data set [2], the LC30 was > 10000 µg/mL. The MIC is 50 µg/mL (≈ 168 µM) in data set [1]; 50 µg/mL (≈ 168 µM) in the data set on Bacillus subtilis; > 50 µg/mL with Staphylococcus aureus; 25 µg/mL (≈ 83.8 µM) with Pseudomonas aeruginosa; 25 µg/mL (≈ 83.8 µM) in the data set on Escherichia coli.

Take `Sc1nnc(-c2cnccn2)n1/N=C/C=C/c1ccccc1`: the MIC in data set [1] was 50 µg/mL (≈ 162 µM); with Bacillus subtilis it was 25 µg/mL (≈ 81.1 µM); with Staphylococcus aureus, 50 µg/mL (≈ 162 µM); in the data set on Pseudomonas aeruginosa it was 25 µg/mL (≈ 81.1 µM); with Escherichia coli, 12.5 µg/mL (≈ 40.5 µM).

Consider `Cc1ccc(/C=N/n2c(S)nnc2-c2cnccn2)cc1`, for which the IC50 with NIH3T3 was 156 µM; in data set [3], 27.1 µM. In data set [2], the LC30 was > 10000 µg/mL. Moreover, the MIC came to 25 µg/mL (≈ 84.4 µM) in data set [1]; 25 µg/mL (≈ 84.4 µM) in the data set on Bacillus subtilis; 25 µg/mL (≈ 84.4 µM) in the data set with Staphylococcus aureus; 50 µg/mL (≈ 169 µM) in the data set on Pseudomonas aeruginosa; 12.5 µg/mL (≈ 42.2 µM) with Escherichia coli.

For the molecule `O=[N+]([O-])c1ccc(/C=N/n2c(S)nnc2-c2cnccn2)cc1`, the MIC in data set [1] was 50 µg/mL (≈ 153 µM); with Bacillus subtilis, 25 µg/mL (≈ 76.4 µM); in the data set on Staphylococcus aureus, > 50 µg/mL; in the data set on Pseudomonas aeruginosa it was 25 µg/mL (≈ 76.4 µM); in the data set with Escherichia coli, 25 µg/mL (≈ 76.4 µM).

In the case of `Oc1ccc(/C=N/n2c(S)nnc2-c2cnccn2)cc1`, the IC50 in the data set with NIH3T3 worked out at 175 µM; in data set [3], 29.3 µM. For the same molecule, the LC30 in data set [2] is > 10000 µg/mL. Further, the MIC in data set [1] was 25 µg/mL (≈ 83.8 µM); in the data set on Bacillus subtilis, 25 µg/mL (≈ 83.8 µM); in the data set on Staphylococcus aureus, 50 µg/mL (≈ 168 µM); in the data set on Pseudomonas aeruginosa, 25 µg/mL (≈ 83.8 µM); in the data set with Escherichia coli it was 12.5 µg/mL (≈ 41.9 µM).
